Measurements as given in patent US9409939B2, “Quantification method for remaining liver function and novel liver receptor imaging agent” (INSTITUTE OF NUCLEAR ENERGY RESEARCH ATOMIC ENERGY COUNCIL, …, priority 2009, dated 2016).

Tests used:
[1] = tested on: normal rat cells (Clone 9); assay: MTT cell toxicity test, Clone 9; type: cell-based; conditions: Clone 9, concentration 10^3 times of 0.01 μM, 24 hr, 48 hr
Protocol: (§1) MTT, i.e. 3-(4,5-cimethyl-thiazol-2-yl)-2,5-diphenyl tetrazolium bromide, can be metabolized by succinate dehydrogenase of cell mitochondria into blue MTT formazan, and thus is widely used to detect cell viability. The experimental method includes: adding 0, 0.001 μM, 0.01 μM, 0.1 μM, 1 μM, and 10 μM hexa-lactoside into 1×10^6 normal rat cells (Clone 9) and normal mouse cells (FL83B), respectively; after culturing for 24 hr, 48 hr, adding MTT; and 4 hr later, dissolving the cells with DMSO. The blue MTT formazan is soluble in the solution. The absorption of the solution at 570 nm is detected. With the absorption at 570 nm without adding hexa-lactoside as 100% of cell viability, the experimental groups with hexa-lactoside added are compared with the normal group without adding hexa-lactoside, to get the cell viability of the experimental groups. FIG. 10 is a comparison of cell viability of hexa-lactoside in normal rat cell (Clone 9), and FIG. 11 is a comparison of cell viability of hexa-lactoside in normal mouse cell (FL83B), in which the concentration used presently is 0.01 μM.

[2] = tested on: normal mouse cells (FL83B); assay: MTT cell toxicity test, FL83B; type: cell-based; conditions: concentration 10^3 times of 0.01 μM, 24 hr, 48 hr
Protocol: as §1

ASGPR = molecular target: T1, ASGPR (Mus musculus, UniProt P24721+P34927); assay: Competition with Eu-ASOR for binding to murine hepatocyte (time-resolved fluorescence)
T1 construct: host or cells: murine hepatocytes (purchased, plated in 24-well plates)
T1 sequence (P34927 1-284): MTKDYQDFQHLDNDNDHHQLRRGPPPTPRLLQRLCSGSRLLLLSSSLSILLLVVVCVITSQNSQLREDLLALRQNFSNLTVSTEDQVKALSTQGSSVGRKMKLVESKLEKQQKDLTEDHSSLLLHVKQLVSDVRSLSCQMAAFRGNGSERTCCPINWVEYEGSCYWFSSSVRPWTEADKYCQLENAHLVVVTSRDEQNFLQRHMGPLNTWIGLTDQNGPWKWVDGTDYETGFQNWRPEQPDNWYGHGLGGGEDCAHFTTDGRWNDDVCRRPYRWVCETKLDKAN
T1 sequence (P24721 1-301): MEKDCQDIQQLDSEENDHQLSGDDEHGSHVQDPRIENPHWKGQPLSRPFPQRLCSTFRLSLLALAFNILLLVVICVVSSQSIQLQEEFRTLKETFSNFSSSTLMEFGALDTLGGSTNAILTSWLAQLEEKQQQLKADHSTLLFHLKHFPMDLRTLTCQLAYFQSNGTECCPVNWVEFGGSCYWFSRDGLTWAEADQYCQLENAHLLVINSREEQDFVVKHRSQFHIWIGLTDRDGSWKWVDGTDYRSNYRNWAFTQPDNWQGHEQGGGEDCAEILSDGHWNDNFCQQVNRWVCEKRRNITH
Protocol: The murine hepatocyte (from Lonza Biotechnology Company, Maryland) is plated in a 24-well plate in advance, and the reaction occurs in each well, into which (i) Eu-ASOR 10 nM (ii) hepatocyte basic medium with 5 mM calcium chloride, and (iii) five different concentrations of saccharide chain peptide of 1 uM-0.8 nM are added. After culturing with shaking for 1 hr, the substance that has not been bound to hepatocyte is removed by washing with the hepatocyte basic medium containing calcium chloride.
Time-resolved fluorescence spectroscopy is preformed, that is, an enhancement solution (15 uM β-naphthoyl trifluoroacetone, 50 uM tri-n-octyl-phosphine oxide, 0.1% triton X-100 in 0.1M acetic acid, titrated with potassium hydrogen phthalate to pH 3.2) is added. The enhancement solution reacts with Eu^3+ to form a Eu chelate, which can emit a light of 615 nm when being excited at 340 nm. With the logarithm of the concentration of saccharide chain peptide as X axis, the emitted fluorescence value as Y axis, the fluorescence value without adding glycopeptide being set as 100%, the IC50 of each saccharide chain peptide can be calculated accordingly.

NCCCCCC(=O)N[C@@H](CC(=O)NCCCC[C@@H](C(=O)NCCCCCCOC1O[C@H](CO)[C@@H](O[C@@H]2O[C@H](CO)[C@H](O)[C@H](O)[C@H]2O)[C@H](O)[C@H]1O)N(CC(=O)NCCCCCCOC1O[C@H](CO)[C@@H](O[C@@H]2O[C@H](CO)[C@H](O)[C@H](O)[C@H]2O)[C@H](O)[C@H]1O)CC(=O)NCCCCCCOC1O[C@H](CO)[C@@H](O[C@@H]2O[C@H](CO)[C@H](O)[C@H](O)[C@H]2O)[C@H](O)[C@H]1O)C(=O)NCCCC[C@@H](C(=O)NCCCCCCOC1O[C@H](CO)[C@@H](O[C@@H]2O[C@H](CO)[C@H](O)[C@H](O)[C@H]2O)[C@H](O)[C@H]1O)N(CC(=O)NCCCCCCOC1O[C@H](CO)[C@@H](O[C@@H]2O[C@H](CO)[C@H](O)[C@H](O)[C@H]2O)[C@H](O)[C@H]1O)CC(=O)NCCCCCCOC1O[C@H](CO)[C@@H](O[C@@H]2O[C@H](CO)[C@H](O)[C@H](O)[C@H]2O)[C@H](O)[C@H]1O (stereo partly shown) [AHA-Asp[DCM-Lys(ahLac)3]2, AHA-Asp[DCM-Lys(ah-Lac)3]2]
cell viability (MTT) [1]: 100%
cell viability (MTT) [2]: 100%

CC(=O)N[C@H]1[C@H](OCCCCCCNC(=O)CNC(=O)CN(CC(=O)NCC(=O)NCCCCCCO[C@@H]2O[C@H](CO)[C@H](O)[C@H](O)[C@H]2NC(C)=O)[C@@H](CCCCN)C(=O)NCC(=O)NCCCCCCO[C@@H]2O[C@H](CO)[C@H](O)[C@H](O)[C@H]2NC(C)=O)O[C@H](CO)[C@H](O)[C@@H]1O [DCM-Lys(GahGalNAc)3, DCM-Lys(Gah-GalNAc)3]
binding to ASGPR relative to YEE or YDD (ASGPR; compared with YEE or YDD): 10 times

CC(=O)N[C@H]1[C@H](OCCCCCCNC(=O)CNC(=O)C[C@H](NC(=O)[C@H](CC(=O)NCC(=O)NCCCCCCO[C@@H]2O[C@H](CO)[C@H](O)[C@H](O)[C@H]2NC(C)=O)NC(=O)[C@@H](N)Cc2ccc(O)cc2)C(=O)NCC(=O)NCCCCCCO[C@@H]2O[C@H](CO)[C@H](O)[C@H](O)[C@H]2NC(C)=O)O[C@H](CO)[C@H](O)[C@@H]1O [YDD(GahGalNAc)3, reference compound]
IC50 (ASGPR): 10 nM
